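Where inhibition never reached the appropriate level, the endpoint shown equals the highest concentration tested. Otherwise, values were interpolated linearly from a five-concentration, 48-hour dose response in 96-well plates. At the GI50, growth is halved.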 The source made the active and inactive calls. No stated cut-off is given here; in the data, active = GI50 up to about 1.1 µM and inactive = higher.
Columns and labels:
Test in all cases: inhibition of tumour cell growth, NCI panel, 48 h
UO-31 = system: UO-31
LOX IMVI = system: LOX IMVI
786-0 = system: 786-0
U-251 = system: U-251
SF-268 = system: SF-268
SK-OV-3 = system: SK-OV-3
OVCAR-3 = system: OVCAR-3
RXF 393 = system: RXF 393
UACC-257 = system: UACC-257
MDA-N = system: MDA-N
ACHN = system: ACHN
A549 = system: A549
SW-620 = system: SW-620
MDA-MB-231 = system: MDA-MB-231
EKVX = system: EKVX
Hs-578T = system: Hs-578T
KM12 = system: KM12
HOP-62 = system: HOP-62
COLO 205 = system: COLO 205
MCF7 = system: MCF7
HCT-15 = system: HCT-15
SK-MEL-5 = system: SK-MEL-5
SF-295 = system: SF-295
PC-3 = system: PC-3
OVCAR-4 = system: OVCAR-4
DU-145 = system: DU-145
BT-549 = system: BT-549
SR = system: SR
OVCAR-5 = system: OVCAR-5
K562 = system: K562
HCC 2998 = system: HCC 2998
M14 = system: M14
HCT-116 = system: HCT-116
NCI/ADR-RES = system: NCI/ADR-RES
CAKI-1 = system: CAKI-1
MDA-MB-435 = system: MDA-MB-435
SK-MEL-2 = system: SK-MEL-2
HL-60 = system: HL-60
OVCAR-8 = system: OVCAR-8
CCRF-CEM = system: CCRF-CEM
Malme-3M = system: Malme-3M
HT-29 = system: HT-29
NCI-H23 = system: NCI-H23
RPMI-8226 = system: RPMI-8226
SN12C = system: SN12C
IGROV-1 = system: IGROV-1
NCI-H226 = system: NCI-H226
SK-MEL-28 = system: SK-MEL-28
SNB-19 = system: SNB-19
MOLT-4 = system: MOLT-4
T47D = system: T47D
TK-10 = system: TK-10
UACC-62 = system: UACC-62
NCI-H522 = system: NCI-H522
SF-539 = system: SF-539
SNB-75 = system: SNB-75
NCI-H460 = system: NCI-H460
HOP-92 = system: HOP-92
A498 = system: A498

Structure (SMILES): CCCN(CCC)CCc1ccc(OC2=CCN(C)CC2)cc1
- GI50 (UO-31): 23.6 µM (inactive)
- GI50 (LOX IMVI): 23 µM (inactive)
- GI50 (786-0): 39.9 µM (inactive)
- GI50 (U-251): > 100 µM (inactive)
- GI50 (SF-268): 86.1 µM (inactive)
- GI50 (SK-OV-3): > 100 µM (inactive)
- GI50 (OVCAR-3): 79.3 µM (inactive)
- GI50 (RXF 393): > 100 µM (inactive)
- GI50 (UACC-257): 20.3 µM (inactive)
- GI50 (MDA-N): 36.6 µM (inactive)
- GI50 (ACHN): 95.5 µM (inactive)
- GI50 (A549): > 100 µM (inactive)
- GI50 (SW-620): > 100 µM (inactive)
- GI50 (MDA-MB-231): > 100 µM (inactive)
- GI50 (EKVX): > 100 µM (inactive)
- GI50 (Hs-578T): 40.6 µM (inactive)
- GI50 (KM12): 30.4 µM (inactive)
- GI50 (HOP-62): > 100 µM (inactive)
- GI50 (COLO 205): 50.6 µM (inactive)
- GI50 (MCF7): > 100 µM (inactive)
- GI50 (HCT-15): 36.9 µM
- GI50 (SK-MEL-5): 32.3 µM (inactive)
- GI50 (SF-295): > 100 µM (inactive)
- GI50 (PC-3): > 100 µM (inactive)
- GI50 (OVCAR-4): > 100 µM (inactive)
- GI50 (DU-145): > 100 µM (inactive)
- GI50 (BT-549): 29.8 µM (inactive)
- GI50 (SR): 28.2 µM (inactive)
- GI50 (OVCAR-5): > 100 µM (inactive)
- GI50 (K562): 42.6 µM (inactive)
- GI50 (HCC 2998): > 100 µM (inactive)
- GI50 (M14): 15.7 µM (inactive)
- GI50 (HCT-116): 39.8 µM (inactive)
- GI50 (NCI/ADR-RES): > 100 µM (inactive)
- GI50 (CAKI-1): > 100 µM (inactive)
- GI50 (MDA-MB-435): 33 µM (inactive)
- GI50 (SK-MEL-2): > 100 µM (inactive)
- GI50 (HL-60): 35.8 µM (inactive)
- GI50 (OVCAR-8): 36.9 µM (inactive)
- GI50 (CCRF-CEM): 93.5 µM (inactive)
- GI50 (Malme-3M): 13.8 µM (inactive)
- GI50 (HT-29): 16 µM (inactive)
- GI50 (NCI-H23): > 100 µM (inactive)
- GI50 (RPMI-8226): > 100 µM (inactive)
- GI50 (SN12C): > 100 µM (inactive)
- GI50 (IGROV-1): 67.3 µM (inactive)
- GI50 (NCI-H226): > 100 µM (inactive)
- GI50 (SK-MEL-28): 35.3 µM (inactive)
- GI50 (SNB-19): > 100 µM (inactive)
- GI50 (MOLT-4): 43.3 µM (inactive)
- GI50 (T47D): > 100 µM (inactive)
- GI50 (TK-10): 87.3 µM (inactive)
- GI50 (UACC-62): 38 µM (inactive)
- GI50 (NCI-H522): 21.1 µM (inactive)

Structure (SMILES): Cc1n[nH]c(=O)n1C1CC1
- GI50 (UO-31): > 100 µM (inactive)
- GI50 (LOX IMVI): > 100 µM (inactive)
- GI50 (786-0): > 100 µM (inactive)
- GI50 (U-251): > 100 µM (inactive)
- GI50 (SF-268): > 100 µM (inactive)
- GI50 (SF-539): > 100 µM (inactive)
- GI50 (SK-OV-3): > 100 µM (inactive)
- GI50 (SNB-75): 42.7 µM (inactive)
- GI50 (OVCAR-3): > 100 µM (inactive)
- GI50 (RXF 393): > 100 µM (inactive)
- GI50 (UACC-257): > 100 µM (inactive)
- GI50 (MDA-N): > 100 µM (inactive)
- GI50 (ACHN): > 100 µM (inactive)
- GI50 (A549): > 100 µM (inactive)
- GI50 (SW-620): > 100 µM (inactive)
- GI50 (MDA-MB-231): > 100 µM (inactive)
- GI50 (EKVX): > 100 µM (inactive)
- GI50 (Hs-578T): > 100 µM (inactive)
- GI50 (KM12): > 100 µM (inactive)
- GI50 (HOP-62): > 100 µM (inactive)
- GI50 (COLO 205): > 100 µM (inactive)
- GI50 (MCF7): > 100 µM (inactive)
- GI50 (HCT-15): > 100 µM
- GI50 (SK-MEL-5): > 100 µM (inactive)
- GI50 (SF-295): > 100 µM (inactive)
- GI50 (PC-3): > 100 µM (inactive)
- GI50 (OVCAR-4): > 100 µM (inactive)
- GI50 (DU-145): > 100 µM (inactive)
- GI50 (BT-549): 0.0111 µM (active)
- GI50 (SR): > 100 µM (inactive)
- GI50 (OVCAR-5): > 100 µM (inactive)
- GI50 (K562): > 100 µM (inactive)
- GI50 (HCC 2998): > 100 µM (inactive)
- GI50 (M14): > 100 µM (inactive)
- GI50 (HCT-116): > 100 µM (inactive)
- GI50 (NCI/ADR-RES): > 100 µM (inactive)
- GI50 (CAKI-1): > 100 µM (inactive)
- GI50 (MDA-MB-435): > 100 µM (inactive)
- GI50 (HL-60): > 100 µM (inactive)
- GI50 (OVCAR-8): > 100 µM (inactive)
- GI50 (CCRF-CEM): > 100 µM (inactive)
- GI50 (NCI-H460): > 100 µM (inactive)
- GI50 (Malme-3M): 64.1 µM (inactive)
- GI50 (HT-29): > 100 µM (inactive)
- GI50 (NCI-H23): > 100 µM (inactive)
- GI50 (RPMI-8226): > 100 µM (inactive)
- GI50 (SN12C): > 100 µM (inactive)
- GI50 (IGROV-1): > 100 µM (inactive)
- GI50 (NCI-H226): > 100 µM (inactive)
- GI50 (SK-MEL-28): > 100 µM (inactive)
- GI50 (HOP-92): > 100 µM (inactive)
- GI50 (SNB-19): > 100 µM (inactive)
- GI50 (MOLT-4): > 100 µM (inactive)
- GI50 (T47D): > 100 µM (inactive)
- GI50 (UACC-62): > 100 µM (inactive)
- GI50 (NCI-H522): > 100 µM (inactive)

Structure (SMILES): CSCCCNC(=O)c1csc(-c2csc(C(CNC(=O)OC(C)(C)C)CNC(=O)OC(C)(C)C)n2)n1
- GI50 (UO-31): 31.8 µM (inactive)
- GI50 (LOX IMVI): 39.8 µM (inactive)
- GI50 (786-0): 50.4 µM (inactive)
- GI50 (U-251): 25.6 µM (inactive)
- GI50 (SF-268): 76.2 µM (inactive)
- GI50 (SF-539): 45 µM (inactive)
- GI50 (SK-OV-3): 60.3 µM (inactive)
- GI50 (SNB-75): 35 µM (inactive)
- GI50 (OVCAR-3): 60 µM (inactive)
- GI50 (RXF 393): 68.5 µM (inactive)
- GI50 (UACC-257): 40.6 µM (inactive)
- GI50 (MDA-N): 51.4 µM (inactive)
- GI50 (ACHN): 30.9 µM (inactive)
- GI50 (SW-620): 58.3 µM (inactive)
- GI50 (MDA-MB-231): 57.8 µM (inactive)
- GI50 (EKVX): 58.3 µM (inactive)
- GI50 (Hs-578T): 45.8 µM (inactive)
- GI50 (KM12): 31 µM (inactive)
- GI50 (HOP-62): 33.7 µM (inactive)
- GI50 (COLO 205): 34 µM (inactive)
- GI50 (MCF7): 57.9 µM (inactive)
- GI50 (HCT-15): 43.4 µM
- GI50 (SK-MEL-5): 26.1 µM (inactive)
- GI50 (SF-295): 38.6 µM (inactive)
- GI50 (PC-3): 28.4 µM (inactive)
- GI50 (OVCAR-4): 26.9 µM (inactive)
- GI50 (A498): 55.2 µM (inactive)
- GI50 (DU-145): 76.2 µM (inactive)
- GI50 (BT-549): 34.5 µM (inactive)
- GI50 (SR): 24.4 µM (inactive)
- GI50 (OVCAR-5): 67 µM (inactive)
- GI50 (K562): 33.6 µM (inactive)
- GI50 (M14): 47 µM (inactive)
- GI50 (HCT-116): 31.4 µM (inactive)
- GI50 (NCI/ADR-RES): 24.8 µM (inactive)
- GI50 (CAKI-1): 59.6 µM (inactive)
- GI50 (MDA-MB-435): 45 µM (inactive)
- GI50 (SK-MEL-2): 27.7 µM (inactive)
- GI50 (OVCAR-8): 33.9 µM (inactive)
- GI50 (CCRF-CEM): 16.6 µM (inactive)
- GI50 (NCI-H460): 14.5 µM (inactive)
- GI50 (NCI-H23): 36 µM (inactive)
- GI50 (RPMI-8226): 14.3 µM (inactive)
- GI50 (SN12C): 61.8 µM (inactive)
- GI50 (IGROV-1): 33.3 µM (inactive)
- GI50 (NCI-H226): 42.5 µM (inactive)
- GI50 (HOP-92): 43 µM (inactive)
- GI50 (SNB-19): 58.3 µM (inactive)
- GI50 (MOLT-4): 16.8 µM (inactive)
- GI50 (T47D): 29.2 µM (inactive)
- GI50 (TK-10): 66.1 µM (inactive)
- GI50 (UACC-62): 18.1 µM (inactive)
- GI50 (NCI-H522): 18.6 µM (inactive)
